Experimental data as given in ChEMBL document CHEMBL5212743, “Selectivity Literature for EUbOPEN Chemogenomics Library wave 3” (2023).
Values belong to the compound of their own block, whether it stands above or below them.

Experiments:
[1] = target: T1, Serine/threonine-protein kinase ULK2 (Homo sapiens) (UniProt Q8IYT8); assay: Selectivity interaction (KinomeScan (DiscoverX)) EUB0000178b ULK2; conditions: at 1 µM
T1 sequence (whole entry): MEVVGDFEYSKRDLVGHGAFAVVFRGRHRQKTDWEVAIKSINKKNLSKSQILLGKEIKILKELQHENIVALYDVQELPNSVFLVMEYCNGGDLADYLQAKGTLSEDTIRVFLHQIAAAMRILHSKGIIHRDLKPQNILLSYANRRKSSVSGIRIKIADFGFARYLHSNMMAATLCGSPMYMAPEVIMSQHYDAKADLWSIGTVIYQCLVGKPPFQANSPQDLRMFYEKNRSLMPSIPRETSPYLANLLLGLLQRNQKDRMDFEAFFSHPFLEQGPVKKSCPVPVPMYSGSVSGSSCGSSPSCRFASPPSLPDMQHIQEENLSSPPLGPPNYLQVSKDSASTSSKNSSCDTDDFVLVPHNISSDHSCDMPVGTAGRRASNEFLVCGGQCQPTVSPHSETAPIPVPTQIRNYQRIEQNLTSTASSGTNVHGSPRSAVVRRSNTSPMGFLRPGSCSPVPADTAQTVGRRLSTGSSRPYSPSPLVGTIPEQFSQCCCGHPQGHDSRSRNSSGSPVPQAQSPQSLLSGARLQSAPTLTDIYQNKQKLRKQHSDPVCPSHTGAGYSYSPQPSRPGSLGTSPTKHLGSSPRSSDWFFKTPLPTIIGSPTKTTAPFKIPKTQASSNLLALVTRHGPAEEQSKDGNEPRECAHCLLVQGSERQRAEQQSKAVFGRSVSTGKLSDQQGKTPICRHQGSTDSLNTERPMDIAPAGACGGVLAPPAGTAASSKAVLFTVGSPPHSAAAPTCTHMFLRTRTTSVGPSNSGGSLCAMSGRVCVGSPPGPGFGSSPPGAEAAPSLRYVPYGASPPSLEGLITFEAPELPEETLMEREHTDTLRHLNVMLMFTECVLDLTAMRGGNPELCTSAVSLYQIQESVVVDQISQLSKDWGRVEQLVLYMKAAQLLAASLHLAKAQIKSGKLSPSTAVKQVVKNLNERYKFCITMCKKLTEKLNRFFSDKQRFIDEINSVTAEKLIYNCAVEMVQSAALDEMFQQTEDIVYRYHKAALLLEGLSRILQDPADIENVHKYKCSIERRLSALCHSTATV

[2] = target: T2, Homeodomain-interacting protein kinase 4 (Homo sapiens) (UniProt Q8NE63); conditions: at 1 µM
T2 sequence (whole entry): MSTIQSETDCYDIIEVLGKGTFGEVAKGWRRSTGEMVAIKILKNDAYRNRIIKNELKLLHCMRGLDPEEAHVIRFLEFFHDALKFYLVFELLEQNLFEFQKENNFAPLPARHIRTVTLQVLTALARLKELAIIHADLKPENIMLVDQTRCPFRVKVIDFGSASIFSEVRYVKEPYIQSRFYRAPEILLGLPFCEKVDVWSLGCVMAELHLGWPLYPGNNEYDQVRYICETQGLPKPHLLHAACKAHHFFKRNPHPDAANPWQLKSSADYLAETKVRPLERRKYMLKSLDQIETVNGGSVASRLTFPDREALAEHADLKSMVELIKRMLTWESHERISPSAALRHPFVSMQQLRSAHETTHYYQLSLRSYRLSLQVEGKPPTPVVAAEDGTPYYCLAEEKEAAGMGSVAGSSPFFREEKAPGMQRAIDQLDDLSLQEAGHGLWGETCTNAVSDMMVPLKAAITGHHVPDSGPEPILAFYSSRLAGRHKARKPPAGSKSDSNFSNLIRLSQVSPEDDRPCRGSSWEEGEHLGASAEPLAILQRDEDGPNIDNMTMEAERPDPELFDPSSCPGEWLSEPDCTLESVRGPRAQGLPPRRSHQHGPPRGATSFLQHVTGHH

[3] = target: T3, Mitogen-activated protein kinase kinase kinase 19 (Homo sapiens) (UniProt Q56UN5); assay: Selectivity interaction (KinomeScan (DiscoverX)) EUB0000305b MAP3K19; conditions: CellTiter-Glo assay (Promega, proliferation in ACHN cells): IC50 = […] nM, https://www.sgc-ffm.uni-frankfurt.de/#!specificprobeove, at 100 nM
T3 sequence (whole entry): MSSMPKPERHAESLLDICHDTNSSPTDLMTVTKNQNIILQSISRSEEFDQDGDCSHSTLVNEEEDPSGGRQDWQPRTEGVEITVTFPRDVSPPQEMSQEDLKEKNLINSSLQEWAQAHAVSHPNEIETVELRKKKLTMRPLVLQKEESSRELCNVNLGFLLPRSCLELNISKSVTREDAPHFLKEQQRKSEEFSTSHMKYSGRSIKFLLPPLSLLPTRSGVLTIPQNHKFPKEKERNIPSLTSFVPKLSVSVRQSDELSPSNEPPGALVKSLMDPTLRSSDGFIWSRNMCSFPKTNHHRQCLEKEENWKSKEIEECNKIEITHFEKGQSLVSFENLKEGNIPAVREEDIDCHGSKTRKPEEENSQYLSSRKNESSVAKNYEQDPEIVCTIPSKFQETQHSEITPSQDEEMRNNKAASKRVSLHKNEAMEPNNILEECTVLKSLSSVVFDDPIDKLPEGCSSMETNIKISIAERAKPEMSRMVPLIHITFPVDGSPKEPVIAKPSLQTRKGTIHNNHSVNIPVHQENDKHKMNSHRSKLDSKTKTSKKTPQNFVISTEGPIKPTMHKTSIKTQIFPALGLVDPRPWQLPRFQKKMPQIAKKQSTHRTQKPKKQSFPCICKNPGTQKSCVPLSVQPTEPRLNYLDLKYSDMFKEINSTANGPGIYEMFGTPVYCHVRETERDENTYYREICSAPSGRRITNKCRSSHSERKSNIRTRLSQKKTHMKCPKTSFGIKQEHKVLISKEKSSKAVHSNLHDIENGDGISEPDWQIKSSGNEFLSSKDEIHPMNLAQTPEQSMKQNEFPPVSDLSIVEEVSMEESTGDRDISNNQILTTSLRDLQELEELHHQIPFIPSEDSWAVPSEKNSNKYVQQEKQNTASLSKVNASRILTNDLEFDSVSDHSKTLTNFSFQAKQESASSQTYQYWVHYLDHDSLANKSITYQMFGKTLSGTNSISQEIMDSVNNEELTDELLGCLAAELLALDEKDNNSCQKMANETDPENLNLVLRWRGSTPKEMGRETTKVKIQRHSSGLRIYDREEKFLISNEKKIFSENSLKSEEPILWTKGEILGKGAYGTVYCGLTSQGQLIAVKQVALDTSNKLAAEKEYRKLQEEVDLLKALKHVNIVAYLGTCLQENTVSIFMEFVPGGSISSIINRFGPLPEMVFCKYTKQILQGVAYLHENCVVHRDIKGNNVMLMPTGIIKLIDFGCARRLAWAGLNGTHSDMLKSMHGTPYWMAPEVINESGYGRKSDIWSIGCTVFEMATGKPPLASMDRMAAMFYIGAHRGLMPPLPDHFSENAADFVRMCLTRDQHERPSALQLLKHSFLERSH

% of control [1]: 4.8%
Compound: CN1C(=O)c2sccc2N(C)c2nc(Nc3ccc(S(N)(=O)=O)cc3)ncc21

Compound: CCOc1cn(-c2ccc(F)cc2C)nc1C(=O)Nc1ccc(Oc2ccnc3cc(OC)c(OC)cc23)c(F)c1
% of control [2]: < 10%

% of control [3]: 10%
Compound: C[C@H](c1ccnc(Nc2nc3ccc(-c4cc(N(C)C)ncn4)cc3[nH]2)c1)N1CCN(C(=O)CC(F)(F)F)CC1 [BAY-985]
